Some test systems named below: LOX IMVI; SNB-19; OVCAR-4; EKVX; NCI-H23; SR; IGROV-1; OVCAR-5; M19-MEL; SK-MEL-5; HCT-116; HT-29; CCRF-CEM; U-251; OVCAR-8; MDA-N; MCF7; DU-145; T47D; MDA-MB-231.
Holding throughout (assay): NCI-60 cell line screen, 48 h

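Values below derive from 48-hour exposures of cells grown in 96-well plates, with endpoints linearly interpolated between the two concentrations bracketing the appropriate inhibition level. The concentration for 50% growth inhibition is given as GI50.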 Calls of active or inactive are those of the source. Rule as the data show it: active = GI50 up to about 1.1 µM and inactive = higher.

Consider `CC(=O)OCC1OC(NC(=S)N/N=C2\CC(c3ccccc3)Oc3ccccc32)C(OC(C)=O)C(OC(C)=O)C1OC(C)=O` (centres undefined), for which the GI50 in the experiment with LOX IMVI, with SNB-19, with OVCAR-4, in the experiment with EKVX, with NCI-H23 and in the experiment on SR was > 100 µM (inactive) throughout. Moreover, the GI50 in the experiment on IGROV-1, in the experiment on OVCAR-5, with M19-MEL, in the experiment with SK-MEL-5, with HCT-116 and with HT-29 was > 100 µM (inactive) each time. The GI50 in the experiment on CCRF-CEM, in the experiment with U-251 and with OVCAR-8 was > 100 µM (inactive) in each case.

On to `Nc1ccccc1C(=O)CCC1C(=O)NC(=S)NC1=O`, for which the GI50 with LOX IMVI, in the experiment on SNB-19, in the experiment with OVCAR-4, with EKVX, with MDA-N and in the experiment on NCI-H23 was > 100 µM (inactive) each time. In addition, the GI50 in the experiment with SR, with IGROV-1, in the experiment on MCF7, in the experiment on OVCAR-5, in the experiment on M19-MEL and with DU-145 was > 100 µM (inactive) throughout. The GI50 in the experiment on SK-MEL-5, in the experiment with T47D, in the experiment with HCT-116, with HT-29, in the experiment on CCRF-CEM and in the experiment with U-251 was > 100 µM (inactive) in each case. The GI50 with OVCAR-8 is > 100 µM (inactive).

On to `O=C(c1ccc(Cl)cc1)N(C(=S)N1CCN(c2ccccc2)CC1)c1ccccc1`, for which the GI50 with LOX IMVI, in the experiment with SNB-19, in the experiment on OVCAR-4, with NCI-H23, in the experiment with SR and with IGROV-1 was > 100 µM (inactive) each time. Moreover, the GI50 with OVCAR-5, with M19-MEL, in the experiment on SK-MEL-5, in the experiment with HCT-116, in the experiment on HT-29 and in the experiment on CCRF-CEM was > 100 µM (inactive) each time. Moreover, the GI50 in the experiment on U-251 and with OVCAR-8 was > 100 µM (inactive) each time.

With `O=C(CC(=O)C(=O)CC(=O)OCc1ccccc1)OCc1ccccc1`, the GI50 in the experiment on SNB-19 was 43.4 µM (inactive); in the experiment on OVCAR-4, 50.5 µM (inactive); in the experiment with EKVX, > 100 µM (inactive); with NCI-H23, 53.2 µM (inactive); in the experiment with SR, 70.8 µM (inactive); with IGROV-1, 78.3 µM (inactive). Also, the GI50 in the experiment on OVCAR-5 is > 100 µM (inactive); with M19-MEL it was > 100 µM (inactive); in the experiment with SK-MEL-5, 66.1 µM (inactive); with HCT-116, 44.6 µM (inactive); with HT-29, > 100 µM (inactive); in the experiment with CCRF-CEM, 49.2 µM (inactive). For the same compound, the GI50 is 50.9 µM (inactive) with U-251 and > 100 µM (inactive) in the experiment with OVCAR-8.

Take `CC(Cl)(/C=C/Cl)C(Cl)/C=C/C(Cl)(CCl)CBr` (centres undefined): the GI50 with LOX IMVI is 1.66 µM (inactive); with SNB-19, 14.1 µM (inactive); in the experiment with OVCAR-4, 3.05 µM (inactive); in the experiment on EKVX it was 31.8 µM (inactive); in the experiment on NCI-H23 it was 1.88 µM (inactive); in the experiment on SR it was 0.191 µM (active). Moreover, the GI50 was 8.71 µM (inactive) in the experiment with IGROV-1; 16 µM (inactive) with OVCAR-5; 3.12 µM (inactive) in the experiment on M19-MEL; 7.52 µM (inactive) with SK-MEL-5; 1.54 µM (inactive) in the experiment on HCT-116; 1.69 µM (inactive) in the experiment with HT-29. Besides, the GI50 with CCRF-CEM is 0.305 µM (active); with U-251, 3.72 µM (inactive); with OVCAR-8 it was 1.71 µM (inactive).

With `COc1ccc2c3c(c(C(=O)O)oc13)CCC2`, the GI50 with LOX IMVI, in the experiment on SNB-19, in the experiment with OVCAR-4, in the experiment on EKVX, in the experiment on NCI-H23 and in the experiment with SR was > 100 µM (inactive) in each case. Also, the GI50 with IGROV-1, with OVCAR-5, in the experiment on M19-MEL, in the experiment with SK-MEL-5, in the experiment with HCT-116 and in the experiment on HT-29 was > 100 µM (inactive) each time. In addition, the GI50 in the experiment on CCRF-CEM, with U-251 and in the experiment with OVCAR-8 was > 100 µM (inactive) throughout.

For `CCCS(=O)(=O)/C(=C(\c1ccc(Br)cc1)S(=O)(=O)CCC)c1ccc(Br)cc1`, the GI50 in the experiment with LOX IMVI, in the experiment with SNB-19, in the experiment on OVCAR-4, in the experiment with EKVX, in the experiment with NCI-H23 and with SR was > 10 µM (inactive) each time. The GI50 in the experiment on IGROV-1, in the experiment with OVCAR-5, in the experiment on M19-MEL, with SK-MEL-5, in the experiment on HCT-116 and in the experiment on HT-29 was > 10 µM (inactive) each time. The GI50 with CCRF-CEM, in the experiment on U-251 and in the experiment on OVCAR-8 was > 10 µM (inactive) each time.

Regarding `CCOC(=O)C1=C(C)N(Cc2ccccc2)C(C)=C(C(=O)OCC)C1c1ccccc1O`, the GI50 in the experiment on LOX IMVI is 17.9 µM (inactive); in the experiment on SNB-19, 43.2 µM (inactive); in the experiment on OVCAR-4 it was 34.8 µM (inactive); with EKVX, 24.7 µM (inactive); in the experiment with NCI-H23 it was 24 µM (inactive); in the experiment with SR it was 15.9 µM (inactive). Also, the GI50 in the experiment with IGROV-1 was 25.5 µM (inactive); with OVCAR-5 it was > 100 µM (inactive); in the experiment with M19-MEL, 27.4 µM (inactive); in the experiment on SK-MEL-5 it was 16.1 µM (inactive); with HCT-116, 29.4 µM (inactive); in the experiment on HT-29 it was 41.4 µM (inactive). Also, the GI50 in the experiment with CCRF-CEM is 27 µM (inactive); with U-251, 39.4 µM (inactive); in the experiment on OVCAR-8, 31.7 µM (inactive).

Take `COc1cc(Br)c(/C=N\c2cccc3cc(OC)c(OC)cc23)cc1OC`: the GI50 is 35.3 µM (inactive) with LOX IMVI; > 100 µM (inactive) in the experiment on SNB-19; 91.8 µM (inactive) in the experiment with OVCAR-4; 50.2 µM (inactive) in the experiment with EKVX; 39.7 µM (inactive) in the experiment with NCI-H23; 15.5 µM (inactive) in the experiment on SR. Besides, the GI50 in the experiment on IGROV-1 was 61.2 µM (inactive); in the experiment with OVCAR-5, > 100 µM (inactive); in the experiment on M19-MEL, 41.6 µM (inactive); in the experiment with SK-MEL-5, 36.1 µM (inactive); with HCT-116 it was 34.3 µM (inactive); in the experiment on HT-29, 31.9 µM (inactive). Besides, the GI50 was 17.8 µM (inactive) with CCRF-CEM, 42.5 µM (inactive) in the experiment with U-251 and 34.7 µM (inactive) with OVCAR-8.

Turning to `O=C1CC(C[C@H](O)C2CCCCC2O)CC(=O)N1Cc1ccccc1` (some centres undefined), the GI50 in the experiment with LOX IMVI, in the experiment on SNB-19, in the experiment on OVCAR-4, with EKVX, in the experiment with NCI-H23 and with SR was > 100 µM (inactive) each time. The GI50 with IGROV-1, with OVCAR-5, in the experiment with M19-MEL, in the experiment with SK-MEL-5, in the experiment on HCT-116 and in the experiment on HT-29 was > 100 µM (inactive) throughout. In addition, the GI50 in the experiment on CCRF-CEM, in the experiment with U-251 and with OVCAR-8 was > 100 µM (inactive) throughout.

`NCCNCCNCc1c2ccccc2c(CNCCNCCN)c2ccccc12`: the GI50 with LOX IMVI was 70.6 µM (inactive); in the experiment on OVCAR-4, 41.6 µM (inactive); with EKVX, > 100 µM (inactive); with NCI-H23, > 100 µM (inactive); with SR it was 31.3 µM (inactive); in the experiment with IGROV-1, 75 µM (inactive). Further, the GI50 in the experiment with OVCAR-5 was > 100 µM (inactive); in the experiment with M19-MEL, 59 µM (inactive); in the experiment on SK-MEL-5, > 100 µM (inactive); in the experiment on HCT-116 it was 38 µM (inactive); in the experiment on HT-29, 40.2 µM (inactive); in the experiment on CCRF-CEM it was 78.5 µM (inactive). Moreover, the GI50 in the experiment on U-251 is 51.6 µM (inactive); in the experiment with OVCAR-8 it was 47.9 µM (inactive).

`c1ccc(C2CC(c3ccc4ccccc4c3)=Nc3ccccc3S2)cc1` (centres undefined): the GI50 in the experiment on LOX IMVI is 15.7 µM (inactive); in the experiment with SNB-19, 19.1 µM (inactive); in the experiment on OVCAR-4 it was 19.5 µM (inactive); in the experiment on EKVX, 23.2 µM (inactive); in the experiment on NCI-H23 it was 14.8 µM (inactive); with SR it was 23.7 µM (inactive). The GI50 in the experiment on IGROV-1 was 22.8 µM (inactive); with OVCAR-5, 21.8 µM (inactive); with M19-MEL it was 18.7 µM (inactive); with SK-MEL-5 it was 18.9 µM (inactive); with HCT-116 it was 14.8 µM (inactive); in the experiment on HT-29 it was 17.1 µM (inactive). The values for the GI50 in the experiment with CCRF-CEM, in the experiment on U-251 and with OVCAR-8 were 26.1 µM (inactive), 17.3 µM (inactive) and 16.3 µM (inactive), respectively.

As to `COc1cc(C2c3cc4c(cc3[C@@H](Nc3ccc5c(c3)OCCO5)C3COC(=O)[C@H]23)OCO4)cc(OC)c1O` (some centres undefined), the GI50 with LOX IMVI is 0.587 µM (active); with SNB-19, 1.04 µM (active); in the experiment on OVCAR-4, 5.97 µM (inactive); with EKVX, 2.87 µM (inactive); with NCI-H23, 0.207 µM (active); in the experiment with SR, < 0.0364 µM (active). Besides, the GI50 in the experiment with IGROV-1 was 0.906 µM (active); in the experiment on MCF7, 0.802 µM (active); in the experiment with OVCAR-5, 2.22 µM (inactive); with M19-MEL, 0.622 µM (active); with DU-145 it was 0.743 µM (active); in the experiment with SK-MEL-5, 0.448 µM (active). For the same compound, the GI50 in the experiment on HCT-116 is 0.194 µM (active); in the experiment with HT-29, 0.555 µM (active); with CCRF-CEM, 0.138 µM (active); in the experiment with MDA-MB-231 it was 16.4 µM (inactive); with U-251, 0.516 µM (active); in the experiment with OVCAR-8, 0.693 µM (active).

Values taken from ChEMBL document CHEMBL1201862, “PubChem BioAssay data set” (2004).
